Measured values taken from US20160002204A1 (Board of Regents, The University of Texas System, priority 2014, published 2016).

Experiments:
[1] = biological target: T1, GLS1 (purified recombinant human GAC) (Homo sapiens, UniProt O94925); assay: GLS1 enzymatic activity assay (dual-coupled, Amplex UltraRed/resorufin); format: biochemical
T1 sequence (O94925 55-598 isoform O94925-3 limits assumed): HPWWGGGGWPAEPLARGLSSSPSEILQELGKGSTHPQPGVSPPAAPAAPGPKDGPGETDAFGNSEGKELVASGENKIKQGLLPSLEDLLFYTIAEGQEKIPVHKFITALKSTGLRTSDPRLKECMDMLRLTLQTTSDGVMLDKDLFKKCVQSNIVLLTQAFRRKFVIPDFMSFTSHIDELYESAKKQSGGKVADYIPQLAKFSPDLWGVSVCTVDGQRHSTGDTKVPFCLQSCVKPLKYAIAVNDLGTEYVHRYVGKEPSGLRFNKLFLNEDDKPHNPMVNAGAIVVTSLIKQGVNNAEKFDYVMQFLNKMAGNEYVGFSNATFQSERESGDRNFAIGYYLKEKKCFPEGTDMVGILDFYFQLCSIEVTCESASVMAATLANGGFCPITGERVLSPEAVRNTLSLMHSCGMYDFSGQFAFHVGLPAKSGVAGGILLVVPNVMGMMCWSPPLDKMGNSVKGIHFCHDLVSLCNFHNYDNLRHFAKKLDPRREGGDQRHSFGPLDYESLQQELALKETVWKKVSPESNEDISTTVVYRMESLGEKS
In short: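 Recombinant human GAC (2 nM) preincubated with 50 mM potassium phosphate, then inhibitor (10 min each, RT); 1 mM glutamine, pH 7.4 Hepes buffer, 1% DMSO. Glutamate coupled via glutamate oxidase/HRP to resorufin (Ex 530/Em 590), kinetic or 20-min endpoint; IC50 by four-parameter logistic fit.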

A549 cells = assay: A549 proliferation (viability) assay, Cell Titer Fluor, 72 hours; format: cell-based; conditions: Homo sapiens
In short: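 Compound exposure lasted 72 h (final DMSO 0.5% v/v) on A549 cells plated at 1000 cells/well one day earlier. Cell Titer Fluor added, 30 min at 37 °C, fluorescence read; EC50 derived by four-parameter logistic curve fitting.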

Row | IC50 [1] [nM] | EC50 (A549 cells) [nM] | Structure (SMILES)
1 | < 100 | 500 to 5000 | Cc1ccc(CNC(=O)c2cn(CC(F)CCn3ccc(NC(=O)CC4CCOCC4)cc3=O)nn2)cn1 (centres unmarked) [Example 197, 1-(2-fluoro-4-{4-[2-(oxan-4-yl)acetamido]-2-oxo-1,2-dihydropyridin-1-yl}butyl)-N-[(6-methylpyridin-3-yl)methyl]-1H-1,2,3-triazole-4-carboxamide]
2 | < 100 | 100 to 500 | Cc1ccc(CNC(=O)c2cn(CC(F)CCn3ccc(NC(=O)CC4CCSCC4)cc3=O)nn2)cn1 (centres unmarked) [Example 198, 1-(2-fluoro-4-{2-oxo-4-[2-(thian-4-yl)acetamido]-1,2-dihydropyridin-1-yl}butyl)-N-[(6-methylpyridin-3-yl)methyl]-1H-1,2,3-triazole-4-carboxamide]
3 | < 100 | < 100 | Cc1ccc(CNC(=O)c2cn(CC(F)CCn3ccc(NC(=O)CC4CCCC4)cc3=O)nn2)cn1 (centres unmarked) [Example 199, 1-{4-[4-(2-cyclopentylacetamido)-2-oxo-1,2-dihydropyridin-1-yl]-2-fluorobutyl}-N-[(6-methylpyridin-3-yl)methyl]-1H-1,2,3-triazole-4-carboxamide]
4 | 100 to 500 | 500 to 5000 | Cc1ccc(CNC(=O)c2cn(CC(F)CCn3ccc(NC(=O)CC4CCCO4)cc3=O)nn2)cn1 (centres unmarked) [Example 200, 1-(2-fluoro-4-{2-oxo-4-[2-(oxolan-2-yl)acetamido]-1,2-dihydropyridin-1-yl}butyl)-N-[(6-methylpyridin-3-yl)methyl]-1H-1,2,3-triazole-4-carboxamide]
5 | < 100 | 100 to 500 | O=C(CC1CCC1)Nc1ccn(CCCCn2cc(C(=O)NCc3cccc(OC(F)(F)F)c3)nn2)c(=O)c1 [Example 201, 1-{4-[4-(2-cyclobutylacetamido)-2-oxo-1,2-dihydropyridin-1-yl]butyl}-N-{[3-(trifluoromethoxy)phenyl]methyl}-1H-1,2,3-triazole-4-carboxamide]
6 | < 100 | 100 to 500 | O=C(Cc1cccs1)Nc1ccn(CCCCn2cc(C(=O)NCc3cccc(OC(F)(F)F)c3)nn2)c(=O)c1 [Example 202, 1-(4-{2-oxo-4-[2-(thiophen-2-yl)acetamido]-1,2-dihydropyridin-1-yl}butyl)-N-{[3-(trifluoromethoxy)phenyl]methyl}-1H-1,2,3-triazole-4-carboxamide]
7 | < 100 | 100 to 500 | O=C(Cc1ccsc1)Nc1ccn(CCCCn2cc(C(=O)NCc3cccc(OC(F)(F)F)c3)nn2)c(=O)c1 [Example 203, 1-(4-{2-oxo-4-[2-(thiophen-3-yl)acetamido]-1,2-dihydropyridin-1-yl}butyl)-N-{[3-(trifluoromethoxy)phenyl]methyl}-1H-1,2,3-triazole-4-carboxamide]
8 | < 100 | 500 to 5000 | O=C1CCC(CC(=O)Nc2ccn(CCCCn3cc(C(=O)NCc4cccc(OC(F)(F)F)c4)nn3)c(=O)c2)CC1 [Example 204, 1-(4-{2-oxo-4-[2-(4-oxocyclohexyl)acetamido]-1,2-dihydropyridin-1-yl}butyl)-N-{[3-(trifluoromethoxy)phenyl]methyl}-1H-1,2,3-triazole-4-carboxamide]
9 | < 100 | < 100 | CC(C)(C)OC(=O)N1CCC(CC(=O)Nc2ccn(CCCCn3cc(C(=O)NCc4cccc(OC(F)(F)F)c4)nn3)c(=O)c2)CC1 [Example 205, tert-butyl 4-{[(2-oxo-1-{4-[4-({[3-(trifluoromethoxy)phenyl]methyl}carbamoyl)-1H-1,2,3-triazol-1-yl]butyl}-1,2-dihydropyridin-4-yl)carbamoyl]methyl}piperidine-1-carboxylate]
10 | < 100 | < 100 | O=C(CC1CCCCO1)Nc1ccn(CCCCn2cc(C(=O)NCc3cccc(OC(F)(F)F)c3)nn2)c(=O)c1 (centres unmarked) [Example 206, 1-(4-{4-[2-(oxan-2-yl)acetamido]-2-oxo-1,2-dihydropyridin-1-yl}butyl)-N-{[3-(trifluoromethoxy)phenyl]methyl}-1H-1,2,3-triazole-4-carboxamide]
11 | < 100 | 500 to 5000 | O=C(CC1CCC(O)CC1)Nc1ccn(CCCCn2cc(C(=O)NCc3cccc(OC(F)(F)F)c3)nn2)c(=O)c1 (centres unmarked) [Example 208, 1-(4-{4-[2-(4-hydroxycyclohexyl)acetamido]-2-oxo-1,2-dihydropyridin-1-yl}butyl)-N-{[3-(trifluoromethoxy)phenyl]methyl}-1H-1,2,3-triazole-4-carboxamide]
12 | < 100 | 500 to 5000 | CNC1CCC(CC(=O)Nc2ccn(CCCCn3cc(C(=O)NCc4cccc(OC(F)(F)F)c4)nn3)c(=O)c2)CC1 (centres unmarked) [Example 209, 1-[4-(4-{2-[4-(methylamino)cyclohexyl]acetamido}-2-oxo-1,2-dihydropyridin-1-yl)butyl]-N-{[3-(trifluoromethoxy)phenyl]methyl}-1H-1,2,3-triazole-4-carboxamide]
13 | < 100 | < 100 | O=C(CC1CCCC1)Nc1ccn(CCCCn2cc(C(=O)NCc3cccc(OC(F)(F)F)c3)nn2)c(=O)c1 [Example 210, 1-{4-[4-(2-cyclopentylacetamido)-2-oxo-1,2-dihydropyridin-1-yl]butyl}-N-{[3-(trifluoromethoxy)phenyl]methyl}-1H-1,2,3-triazole-4-carboxamide]
14 | < 100 | 100 to 500 | CC(C)(C)OC(=O)N[C@H]1CCC[C@H](C(=O)Nc2ccn(CCCCn3cc(C(=O)NCc4cccc(OC(F)(F)F)c4)nn3)c(=O)c2)C1 [Example 211, tert-butyl N-[(1S,3S)-3-[(2-oxo-1-{4-[4-({[3-(trifluoro-methoxy)phenyl]methyl}carbamoyl)-1H-1,2,3-triazol-1-yl]butyl}-1,2-dihydropyridin-4-yl)carbamoyl]cyclohexyl]carbamate]
15 | < 100 | < 100 | O=C(CC1CCCCC1)Nc1ccn(CCC(F)Cn2cc(C(=O)NCc3cccc(OC(F)(F)F)c3)nn2)c(=O)c1F (centres unmarked) [Example 212, 1-{4-[4-(2-cyclohexylacetamido)-3-fluoro-2-oxo-1,2-dihydropyridin-1-yl]-2-fluorobutyl}-N-{[3-(trifluoromethoxy)phenyl]methyl}-1H-1,2,3-triazole-4-carboxamide]
16 | 100 to 500 | 500 to 5000 | O=C(CN1CCOCC1)Nc1ccn(CCC(F)Cn2cc(C(=O)NCc3cccc(OC(F)(F)F)c3)nn2)c(=O)c1 (centres unmarked) [Example 213, 1-(2-fluoro-4-{4-[2-(morpholin-4-yl)acetamido]-2-oxo-1,2-dihydropyridin-1-yl}butyl)-N-{[3-(trifluoromethoxy)phenyl]methyl}-1H-1,2,3-triazole-4-carboxamide]
17 | < 100 | 100 to 500 | O=C(CC1CCC1)Nc1ccn(CCC(F)Cn2cc(C(=O)NCc3cc(Cl)ccc3F)nn2)c(=O)c1 (centres unmarked) [Example 214, N-[(5-chloro-2-fluorophenyl)methyl]-1-{4-[4-(2-cyclobutylacetamido)-2-oxo-1,2-dihydropyridin-1-yl]-2-fluorobutyl}-1H-1,2,3-triazole-4-carboxamide]
18 | < 100 | 100 to 500 | O=C(CC1CCCCO1)Nc1ccn(CCC(F)Cn2cc(C(=O)NCc3cc(Cl)ccc3F)nn2)c(=O)c1 (centres unmarked) [Example 215, N-[(5-chloro-2-fluorophenyl)methyl]-1-(2-fluoro-4-{4-[2-(oxan-2-yl)acetamido]-2-oxo-1,2-dihydropyridin-1-yl}butyl)-1H-1,2,3-triazole-4-carboxamide]
19 | < 100 | 100 to 500 | O=C(Cc1ccccc1)Nc1ccn(CCC(F)Cn2cc(C(=O)NCc3cc(Cl)ccc3F)nn2)c(=O)c1 (centres unmarked) [Example 216, N-[(5-chloro-2-fluorophenyl)methyl]-1-{2-fluoro-4-[2-oxo-4-(2-phenylacetamido)-1,2-dihydropyridin-1-yl]butyl}-1H-1,2,3-triazole-4-carboxamide]
20 | < 100 | < 100 | O=C(CC1CCC1)Nc1ccn(CCC(F)Cn2cc(C(=O)NCc3cccc(OC(F)(F)F)c3)nn2)c(=O)c1 (stereo not drawn) [Example 217, l-{4-[4-(2-cyclobutylacetamido)-2-oxo-1,2-dihydropyridin-1-yl]-2-fluorobutyl}-N-{[3-(trifluoromethoxy)phenyl]methyl}-1H-1,2,3-triazole-4-carboxamide]
21 | < 100 | < 100 | CC(C)(C)OC(=O)N1CCC(CC(=O)Nc2ccn(CCC(F)Cn3cc(C(=O)NCc4cccc(OC(F)(F)F)c4)nn3)c(=O)c2)CC1 (centres unmarked) [Example 219, tert-butyl 4-{[(1-{3-fluoro-4-[4-({[3-(trifluoromethoxy)phenyl]methyl}carbamoyl)-1H-1,2,3-triazol-1-yl]butyl}-2-oxo-1,2-dihydropyridin-4-yl)carbamoyl]methyl}piperidine-1-carboxylate]
22 | < 100 | < 100 | O=C(CC1CCCC1)Nc1ccn(CCC(F)Cn2cc(C(=O)NCc3cccc(OC(F)(F)F)c3)nn2)c(=O)c1 (centres unmarked) [Example 220, 1-{4-[4-(2-cyclopentylacetamido)-2-oxo-1,2-dihydropyridin-1-yl]-2-fluorobutyl}-N-{[3-(trifluoromethoxy)phenyl]methyl}-1H-1,2,3-triazole-4-carboxamide]
